Experimental data reported in patent US4051129A, “Process for preparing 7-methoxycephalosporin compounds” (Sankyo Company Limited, priority 1974, dated 1977).
Values after ≈ are worked out from the molar mass of the structure shown. Read-outs that look alike come from different tables or passages of the source.

Tests used:
Format in all cases: cell-based
[1] = system: Salmonella enteritidis Gartner; assay: Minimum Inhibitory Concentration, Salmonella enteritidis Gartner; settings: Salmonella enterica; VI: Salmonella enteritidis Gartner
[2] = system: Staphylococcus aureus 209 P; assay: Minimum Inhibitory Concentration, Staphylococcus aureus 209 P; settings: IA: Staphylococcus aureus 209 P
[3] = system: Shigella flexneri Komagome; assay: Minimum Inhibitory Concentration, Shigella flexneri Komagome; settings: III: Shigella flexneri Komagome
[4] = system: Klebsiella neumoniae 846 (resistant to CER); assay: Minimum Inhibitory Concentration, Klebsiella neumoniae 846 (resistant to CER); settings: read-out: Minimum Inhibitory Concentration
[5] = system: Proteus vulgaris; assay: Minimum Inhibitory Concentration, Proteus vulgaris; settings: V: Proteus vulgaris
[6] = system: Klebsiella neumoniae 806; assay: Minimum Inhibitory Concentration, Klebsiella neumoniae 806; settings: Klebsiella, 806, read-out: Minimum Inhibitory Concentration
[7] = system: Staphylococcus aureus (resistant to CP and PC); assay: Minimum Inhibitory Concentration, Staphylococcus aureus (resistant to CP and PC); settings: IB: Staphylococcus aureus (resistant to CP and PC)
[8] = system: Escherichia coli 609 (resistant to CER); assay: Minimum Inhibitory Concentration, Escherichia coli 609 (resistant to CER); settings: read-out: Minimum Inhibitory Concentration
[9] = system: Escherichia coli NIHJ; assay: Minimum Inhibitory Concentration, Escherichia coli NIHJ; settings: IIA: Escherichia coli NIHJ
[10] = IIB: Escherichia coli 609 (resistant to CER)

| Compound | MIC [1] | MIC [2] | MIC [3] | MIC [4] | MIC [5] | MIC [6] | MIC [7] | MIC [8, 10] | MIC [9] | MIC ([8]; Escherichia coli) |
| --- | --- | --- | --- | --- | --- | --- | --- | --- | --- | --- |
| CO[C@@]1(NC(=O)C[n+]2cc([O-])on2)C(=O)N2C(C(=O)O)=C(CSc3nnnn3C)CS[C@@H]21 [drawing 7 / drawing 6, 7β-(sydnon-3)acetamido-7α-methoxy-3-(1-methyl-1H-tetrazol-5-yl)thiomethyl-3-cephem-4-carboxylic acid] | 0.8 µg/mL (≈ 1.65 µM) | 0.8 µg/mL (≈ 1.65 µM) | 1.5 µg/mL (≈ 3.1 µM) | > 200 µg/mL | – | – | – | – | – | – |
| CO[C@@]1(NC(=O)CSCC#N)C(=O)N2C(C(=O)O)=C(CSc3nnnn3C)CS[C@@H]21 [NCCH2 S / drawing 6, 7β-cyanomethylthioacetamido-7α-methoxy-3-(1-methyl-1H-tetrazol-5-yl)thiomethyl-3-cephem-4-carboxylic acid] | 0.2 µg/mL (≈ 0.424 µM) | 0.2 µg/mL (≈ 0.424 µM) | 0.8 µg/mL (≈ 1.7 µM) | – | 1.5 µg/mL (≈ 3.18 µM) | 0.8 µg/mL (≈ 1.7 µM) | – | – | – | – |
| CO[C@@]1(NC(=O)CSc2ccon2)C(=O)N2C(C(=O)O)=C(CSc3nnnn3C)CS[C@@H]21 [drawing 12 / drawing 10, 7β-(3-isoxazolylthio)acetamido-7α-methoxy-3-(1-methyl-1H-tetrazol-5-yl)thiomethyl-3-cephem-4-carboxylic acid] | 0.8 µg/mL (≈ 1.6 µM) | 0.2 µg/mL (≈ 0.4 µM) | 3.1 µg/mL (≈ 6.21 µM) | > 400 µg/mL | – | – | 0.8 µg/mL (≈ 1.6 µM) | – | – | – |
| CO[C@@]1(NC(=O)CS(=O)(=O)CCC#N)C(=O)N2C(C(=O)O)=C(CSc3nnnn3C)CS[C@@H]21 [NC(CH2)2 SO2 / drawing 6, 7β-cyanoethylsulfonyl-acetamido-7α-methoxy-3-(1-methyl-1H-tetrazol-5-yl)thiomethyl-3-cephem-4-carboxylic acid] | 0.8 µg/mL (≈ 1.55 µM) | – | 3.1 µg/mL (≈ 5.99 µM) | 200 µg/mL (≈ 386 µM) | – | – | – | – | – | – |
| CO[C@@]1(NC(=O)CSCC#N)C(=O)N2C(C(=O)O)=C(COC(N)=O)CS[C@@H]21 [NCCH2 S / OCONH2, 3-carbamoyloxymethyl-7β-cyanomethylthioacetamido-7α-methoxy-3-cephem-4-carboxylic acid] | 1.5 µg/mL (≈ 3.6 µM) | – | 3.1 µg/mL (≈ 7.44 µM) | – | – | 3.1 µg/mL (≈ 7.44 µM) | 3.1 µg/mL (≈ 7.44 µM) | 1.5 µg/mL (≈ 3.6 µM) | – | – |
| CO[C@@]1(NC(=O)COc2ccon2)C(=O)N2C(C(=O)O)=C(CSc3nnnn3C)CS[C@@H]21 [drawing 11 / drawing 10, 7β-(3-isoxazolyloxy)acetamido-7α-methoxy-3-(1-methyl-1H-tetrazol-5-yl)thiomethyl-3-cephem-4-carboxylic acid] | – | – | 3.1 µg/mL (≈ 6.41 µM) | – | – | – | – | – | – | – |
| CO[C@@]1(NC(=O)CSC(C)C#N)C(=O)N2C(C(=O)O)=C(CSc3nnnn3C)CS[C@@H]21 (stereo partly drawn) [drawing 8 / drawing 6, 7β-(1-cyanoethyl)-acetamido-7α-methoxy-3-(1-methyl-1H-tetrazol-5-yl)thiomethyl-3-cephem-4-carboxylic acid] | 0.4 µg/mL (≈ 0.824 µM) | 0.4 µg/mL (≈ 0.824 µM) | 1.5 µg/mL (≈ 3.09 µM) | 400 µg/mL (≈ 824 µM) | 0.8 µg/mL (≈ 1.65 µM) | 1.5 µg/mL (≈ 3.09 µM) | 0.8 µg/mL (≈ 1.65 µM) | 3.1 µg/mL (≈ 6.38 µM) | 1.5 µg/mL (≈ 3.09 µM) | – |
| CCS(=O)(=O)CC(=O)N[C@]1(OC)C(=O)N2C(C(=O)O)=C(CSc3nnnn3C)CS[C@@H]21 [C2 H5 SO2 / drawing 6, 7β-ethylsulfonylacetamido-7α-methoxy-3-(1-methyl-1H-tetrazol-5-yl)thiomethyl-3-cephem-4-carboxylic acid] | 0.8 µg/mL (≈ 1.62 µM) | – | 1.5 µg/mL (≈ 3.05 µM) | – | – | – | – | – | – | – |
| CO[C@@]1(NC(=O)CSCCO)C(=O)N2C(C(=O)O)=C(CSc3nnnn3C)CS[C@@H]21 [HOCH2 CH2 S / drawing 6, 7β-(2-hydroxyethylthio)acetamido-7α-methoxy-3-(1-methyl-1H-tetrazol-5-yl)thiomethyl-3-cephem-4-carboxylic acid] | 0.8 µg/mL (≈ 1.68 µM) | 0.8 µg/mL (≈ 1.68 µM) | 1.5 µg/mL (≈ 3.15 µM) | 200 µg/mL (≈ 420 µM) | 3.1 µg/mL (≈ 6.5 µM) | – | – | – | – | – |
| CO[C@@]1(NC(=O)CSc2ccon2)C(=O)N2C(C(=O)O)=C(COC(C)=O)CS[C@@H]21 [drawing 13 / OCOCH3, 3-acetoxymethyl-7β-(3-isoxazolylthio)acetamido-7α-methoxy-3-cephem-4-carboxylic acid] | – | – | 6.2 µg/mL (≈ 14 µM) | – | – | – | – | – | – | – |
| CO[C@@]1(NC(=O)CSCN=[N+]=[N-])C(=O)N2C(C(=O)O)=C(COC(N)=O)CS[C@@H]21 [N3 CH2 S / OCONH2, 7β-azidomethylthioacetamido-3-carbamoyloxymethyl-7α-methoxy-3-cephem-4-carboxylic acid] | – | 0.2 µg/mL (≈ 0.462 µM) | 3.1 µg/mL (≈ 7.17 µM) | > 400 µg/mL | – | – | – | – | – | – |
| CO[C@@]1(NC(=O)CSCN=[N+]=[N-])C(=O)N2C(C(=O)O)=C(CSc3nnnn3C)CS[C@@H]21 [N3 CH2 S / drawing 10, 7β-azidomethylthioacetamido-7α-methoxy-3-(1-methyl-1H-tetrazol-5-yl)thiomethyl-3-cephem-4-carboxylic acid] | 0.8 µg/mL (≈ 1.64 µM) | 0.4 µg/mL (≈ 0.82 µM) | 1.5 µg/mL (≈ 3.08 µM) | > 200 µg/mL | – | – | 0.4 µg/mL (≈ 0.82 µM) | – | – | – |
| CO[C@@]1(NC(=O)CS(C)(=O)=O)C(=O)N2C(C(=O)O)=C(CSc3nnnn3C)CS[C@@H]21 [CH3 SO2 / drawing 6, 7β-methylsulfonylacetamido-7α-methoxy-3-(1-methyl-1H-tetrazol-5-yl)thiomethyl-3-cephem-4-carboxylic acid] | – | – | 1.5 µg/mL (≈ 3.13 µM) | – | – | – | – | – | – | – |
| C#CCSCC(=O)N[C@]1(OC)C(=O)N2C(C(=O)O)=C(CSc3nnnn3C)CS[C@@H]21 [drawing 9 / drawing 10, 7β-propargylthioacetamido-7α-methoxy-3-(1-methyl-1H-tetrazol-5-yl)thiomethyl-3-cephem-4-carboxylic acid] | – | – | 3.1 µg/mL (≈ 6.59 µM) | – | – | – | – | – | – | – |
| C#CCSCC(=O)N[C@]1(OC)C(=O)N2C(C(=O)O)=C(COC(C)=O)CS[C@@H]21 [drawing 14 / OCOCH3] | 6.2 µg/mL (≈ 15 µM) | 1.5 µg/mL (≈ 3.62 µM) | 12.5 µg/mL (≈ 30.2 µM) | > 200 µg/mL | 12.5 µg/mL (≈ 30.2 µM) | 12.5 µg/mL (≈ 30.2 µM) | 6.2 µg/mL (≈ 15 µM) | – | – | 12.5 µg/mL (≈ 30.2 µM) |
| CO[C@@]1(NC(=O)CSCC#N)C(=O)N2C(C(=O)O)=C(COC(C)=O)CS[C@@H]21 [NCCH2 S / OCOCH3, 3-acetoxymethyl-7β-cyanomethylthioacetamido-7α-methoxy-3-cephem-4-carboxylic acid] | – | – | 3.1 µg/mL (≈ 7.46 µM) | – | – | – | – | – | – | – |
| CO[C@@]1(NC(=O)CSCN=[N+]=[N-])C(=O)N2C(C(=O)O)=C(COC(C)=O)CS[C@@H]21 [N3 CH2 S / OCOCH3, 3-acetoxymethyl-7β-azidomethylthioacetamido-7α-methoxy-3-cephem-4-carboxylic acid] | – | – | 6.2 µg/mL (≈ 14.4 µM) | > 200 µg/mL | – | 6.2 µg/mL (≈ 14.4 µM) | – | – | – | – |
